What follows are molecules tested against T1, Human MTHFD2 (Homo sapiens, UniProt P13995) (assay: MTHFD2 Activity Assay (dehydrogenase activity, diaphorase/resazurin coupled fluorescence)). Details: inhibitory activity (IC50 and/or binding constant); 0.2 nM MTHFD2, 11 concentrations.
T1 construct: residues 36-350 in Uniport ID P13995; His6 (N); made in house; host or cells: E. coli
T1 sequence (P13995 36-350): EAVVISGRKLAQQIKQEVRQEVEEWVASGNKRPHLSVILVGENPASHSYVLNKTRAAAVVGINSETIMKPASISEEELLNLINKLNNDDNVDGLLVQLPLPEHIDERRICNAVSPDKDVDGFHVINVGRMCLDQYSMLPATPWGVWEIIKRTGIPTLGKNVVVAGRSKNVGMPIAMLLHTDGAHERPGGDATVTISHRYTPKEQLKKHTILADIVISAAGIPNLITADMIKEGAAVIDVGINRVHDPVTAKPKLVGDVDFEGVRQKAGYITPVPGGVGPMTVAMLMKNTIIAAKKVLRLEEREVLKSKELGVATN
Assay type: biochemical
Method in brief: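 Resorufin fluorescence (ex 525, em 598 nm) reports NADH formed by the dehydrogenase via diaphorase coupling. Enzyme (0.2 nM, residues 36-350, N-His6) sat with compound 15 min before 70 μM CH2-THF and 1 mM NAD+ started a 30 min reaction. IC50s come from 4-parameter fits over 11 concentrations.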

SMILES	IC50 [µM]
Cn1c(Nc2ccncc2)nc2c1c(=O)n(Cc1cc3ccccc3[nH]1)c(=O)n2C [Example 174, 1-((1H-indol-2-yl)methyl)-3,7-dimethyl-8-(pyridin-4-ylamino)-1H-purine-2,6(3H,7H)-dione]	0.01 to 1
Cn1c(Nc2ccncc2)nc2c1c(=O)n(Cc1cc3cc(Cl)ccc3[nH]1)c(=O)n2C [Example 176, 1-((5-chloro-1H-indol-2-yl)methyl)-3,7-dimethyl-8-(pyridin-4-ylamino)-1H-purine-2,6(3H,7H)-dione]	0.01 to 1
Cc1ccc2[nH]c(Cn3c(=O)c4c(nc(Nc5ccncc5)n4C)n(C)c3=O)cc2c1 [Example 181, 3,7-dimethyl-1-((5-methyl-1H-indol-2-yl)methyl)-8-(pyridin-4-ylamino)-1H-purine-2,6(3H,7H)-dione]	0.01 to 1
COc1ccc2[nH]c(Cn3c(=O)c4c(nc(N[C@H]5CC[C@@H](O)C5)n4C)n(C)c3=O)cc2c1 [Example 182, 8-((1S,3R)-3-hydroxycyclopentylamino)-1-((5-methoxy-1H-indol-2-yl)methyl)-3,7-dimethyl-1H-purine-2,6(3H,7H)-dione]	0.01 to 1
COc1ccc2[nH]c(Cn3c(=O)c4c(nc(Nc5ccncc5)n4C)n(C)c3=O)cc2c1 [Example 183, 1-((5-methoxy-1H-indol-2-yl)methyl)-3,7-dimethyl-8-(pyridin-4-ylamino)-1H-purine-2,6(3H,7H)-dione]	0.01 to 1
Cc1ccc2c(c1)cc(Cn1c(=O)c3c(nc(N[C@H]4CC[C@@H](O)C4)n3C)n(C)c1=O)n2C [Example 185, 1-((1,5-dimethyl-1H-indol-2-yl)methyl)-8-((1S,3R)-3-hydroxycyclopentylamino)-3,7-dimethyl-1H-purine-2,6(3H,7H)-dione]	0.01 to 1
COc1ccc2c(c1)cc(Cn1c(=O)c3c(nc(N[C@H]4CC[C@@H](O)C4)n3C)n(C)c1=O)n2C [Example 188, 8-((1S,3R)-3-hydroxycyclopentylamino)-1-((5-methoxy-1-methyl-1H-indol-2-yl)methyl)-3,7-dimethyl-1H-purine-2,6(3H,7H)-dione]	1 to 5
Cn1c(Nc2cc[nH]c(=O)n2)nc2c1c(=O)n(Cc1cc3ccccc3[nH]1)c(=O)n2C [Example 189, 1-((1H-indol-2-yl)methyl)-3,7-dimethyl-8-(2-oxo-1,2-dihydropyrimidin-4-ylamino)-1H-purine-2,6(3H,7H)-dione]	0.01 to 1
Cc1ccc2[nH]c(Cn3c(=O)c4c(nc(Nc5cc[nH]c(=O)n5)n4C)n(C)c3=O)cc2c1 [Example 190, 3,7-dimethyl-1-((5-methyl-1H-indol-2-yl)methyl)-8-(2-oxo-1,2-dihydropyrimidin-4-ylamino)-1H-purine-2,6(3H,7H)-dione]	0.01 to 1
Cn1c(N2CCC(O)CC2)nc2c1c(=O)n(Cc1cc3ccccc3[nH]1)c(=O)n2C [Example 191, 1-((1H-indol-2-yl)methyl)-8-(4-hydroxypiperidin-1-yl)-3,7-dimethyl-1H-purine-2,6(3H,7H)-dione]	0.01 to 1
Cn1c(N2CC(O)C2)nc2c1c(=O)n(Cc1cc3ccccc3[nH]1)c(=O)n2C [Example 192, 1-((1H-indol-2-yl)methyl)-8-(3-hydroxyazetidin-1-yl)-3,7-dimethyl-1H-purine-2,6(3H,7H)-dione]	1 to 5
Cc1ccc2[nH]c(Cn3c(=O)c4c(nc(N5CCC(O)CC5)n4C)n(C)c3=O)cc2c1 [Example 193, 8-(4-hydroxypiperidin-1-yl)-3,7-dimethyl-1-((5-methyl-1H-indol-2-yl)methyl)-1H-purine-2,6(3H,7H)-dione]	0.01 to 1
Cc1ccc2[nH]c(Cn3c(=O)c4c(nc(N5CC(O)C5)n4C)n(C)c3=O)cc2c1 [Example 194, 8-(3-hydroxyazetidin-1-yl)-3,7-dimethyl-1-((5-methyl-1H-indol-2-yl)methyl)-1H-purine-2,6(3H,7H)-dione]	1 to 5
Cn1c(Nc2ncn[nH]2)nc2c1c(=O)n(Cc1cc3ccccc3[nH]1)c(=O)n2C [Example 195, 1-((1H-indol-2-yl)methyl)-8-(2H-1,2,4-triazol-3-ylamino)-3,7-dimethyl-1H-purine-2,6(3H,7H)-dione]	1 to 5
Cn1c(Cn2c(=O)c3c(nc(N4CCC(O)CC4)n3C)n(C)c2=O)cc2cc(Cl)ccc21 [Example 196, 1-((5-chloro-1-methyl-1H-indol-2-yl)methyl)-8-(4-hydroxypiperidin-1-yl)-3,7-dimethyl-1H-purine-2,6(3H,7H)-dione]	0.01 to 1
Cn1c(Cn2c(=O)c3c(nc(N4CC(O)C4)n3C)n(C)c2=O)cc2cc(Cl)ccc21 [Example 197, 1-((5-chloro-1-methyl-1H-indol-2-yl)methyl)-8-(3-hydroxyazetidin-1-yl)-3,7-dimethyl-1H-purine-2,6(3H,7H)-dione]	0.01 to 1

SMILES	IC50 [µM]
Cn1c(N2CCC(O)CC2)nc2c1c(=O)n(Cc1cc3cc(Cl)ccc3[nH]1)c(=O)n2C [Example 198, 1-((5-chloro-1H-indol-2-yl)methyl)-8-(4-hydroxypiperidin-1-yl)-3,7-dimethyl-1H-purine-2,6(3H,7H)-dione]	0.01 to 1
Cn1c(N2CC(O)C2)nc2c1c(=O)n(Cc1cc3cc(Cl)ccc3[nH]1)c(=O)n2C [Example 199, 1-((5-chloro-1H-indol-2-yl)methyl)-8-(3-hydroxyazetidin-1-yl)-3,7-dimethyl-1H-purine-2,6(3H,7H)-dione]	1 to 5
Cn1c(Nc2cccnn2)nc2c1c(=O)n(Cc1cc3cc(Cl)ccc3[nH]1)c(=O)n2C [Example 200, 1-((5-chloro-1H-indol-2-yl)methyl)-3,7-dimethyl-8-(pyridazin-3-ylamino)-1H-purine-2,6(3H,7H)-dione]	1 to 5
Cn1c(Nc2cccnn2)nc2c1c(=O)n(Cc1cc3ccccc3[nH]1)c(=O)n2C [Example 201, 1-((1H-indol-2-yl)methyl)-3,7-dimethyl-8-(pyridazin-3-ylamino)-1H-purine-2,6(3H,7H)-dione]	0.01 to 1
Cc1ccc2[nH]c(Cn3c(=O)c4c(nc(Nc5ncn[nH]5)n4C)n(C)c3=O)cc2c1 [Example 202, 8-(1H-1,2,4-triazol-5-ylamino)-3,7-dimethyl-1-((5-methyl-1H-indol-2-yl)methyl)-1H-purine-2,6(3H,7H)-dione]	1 to 5
Cn1c(Cn2c(=O)c3c(nc(Nc4cccnn4)n3C)n(C)c2=O)cc2cc(Cl)ccc21 [Example 203, 1-((5-chloro-1-methyl-1H-indol-2-yl)methyl)-3,7-dimethyl-8-(pyridazin-3-ylamino)-1H-purine-2,6(3H,7H)-dione]	5 to 10
Cn1c(Cn2c(=O)c3c(nc(Nc4ccncn4)n3C)n(C)c2=O)cc2cc(Cl)ccc21 [Example 204, 1-((5-chloro-1-methyl-1H-indol-2-yl)methyl)-3,7-dimethyl-8-(pyrimidin-4-ylamino)-1H-purine-2,6(3H,7H)-dione]	0.01 to 1
Cc1ccc2[nH]c(Cn3c(=O)c4c(nc(Nc5ccncn5)n4C)n(C)c3=O)cc2c1 [Example 205, 3,7-dimethyl-1-((5-methyl-1H-indol-2-yl)methyl)-8-(pyrimidin-4-ylamino)-1H-purine-2,6(3H,7H)-dione]	0.01 to 1
Cn1c(Nc2cc[nH]c(=O)n2)nc2c1c(=O)n(Cc1cc3cc(Cl)ccc3[nH]1)c(=O)n2C [Example 206, 1-((5-chloro-1H-indol-2-yl)methyl)-3,7-dimethyl-8-(2-oxo-1,2-dihydropyrimidin-4-ylamino)-1H-purine-2,6(3H,7H)-dione]	0.01 to 1
Cn1c(Nc2ncn[nH]2)nc2c1c(=O)n(Cc1cc3cc(Cl)ccc3[nH]1)c(=O)n2C [Example 207, 8-(1H-1,2,4-triazol-5-ylamino)-1-((5-chloro-1H-indol-2-yl)methyl)-3,7-dimethyl-1H-purine-2,6(3H,7H)-dione]	1 to 5
Cn1c(Nc2ccncn2)nc2c1c(=O)n(Cc1cc3cc(Cl)ccc3[nH]1)c(=O)n2C [Example 208, 1-((5-chloro-1H-indol-2-yl)methyl)-3,7-dimethyl-8-(pyrimidin-4-ylamino)-1H-purine-2,6(3H,7H)-dione]	0.01 to 1
Cc1ccc2[nH]c(Cn3c(=O)c4c(nc(CCO)n4C)n(C)c3=O)cc2c1 [Example 210, 8-(2-hydroxyethyl)-3,7-dimethyl-1-((5-methyl-1H-indol-2-yl)methyl)-1H-purine-2,6(3H,7H)-dione]	1 to 5
Cn1c(CCO)nc2c1c(=O)n(Cc1cc3ccccc3[nH]1)c(=O)n2C [Example 212, 1-((1H-indol-2-yl)methyl)-8-(2-hydroxyethyl)-3,7-dimethyl-1H-purine-2,6(3H,7H)-dione]	1 to 5
Cn1c(N[C@H]2CCCNC2=O)nc2c1c(=O)n(Cc1cc3ccccc3[nH]1)c(=O)n2C [Example 213, (S)-1-((1H-indol-2-yl)methyl)-3,7-dimethyl-8-(2-oxopiperidin-3-ylamino)-1H-purine-2,6(3H,7H)-dione]	0.01 to 1
Cn1c(Nc2ccncn2)nc2c1c(=O)n(Cc1cc3ccccc3[nH]1)c(=O)n2C [Example 216, 1-((1H-indol-2-yl)methyl)-3,7-dimethyl-8-(pyrimidin-4-ylamino)-1H-purine-2,6(3H,7H)-dione]	0.01 to 1
Cn1c(-n2nccc2N)nc2c1c(=O)n(Cc1cc3ccccc3[nH]1)c(=O)n2C [Example 217, 1-((1H-indol-2-yl)methyl)-8-(5-amino-1H-pyrazol-1-yl)-3,7-dimethyl-1H-purine-2,6(3H,7H)-dione]	0.01 to 1
